Experimental data published in patent US20260028348A1, “MODULATORS OF TNF-ALPHA ACTIVITY” (Forward Therapeutics, Inc., priority 2023, published 2026).

Tested on: HEK Blue™ TNFα reporter cells
Test: TNF-α Induced HEK Blue Cellular Assay
Assay type: cell-based
Settings: TNF-α stimulated HEK Blue TNFα reporter cells, 24 hrs, secreted alkaline phosphatase (QUANTI-Blue, 620 nm)
Protocol: Test articles were diluted in DMSO and serially diluted into 384 well assay plate (Corning 3765), at final concentrations ranging from […] to 0.5 nM. HEK Blue™ TNFα reporter cells were added at a final density of 10,000 cell per well in assay media [DMEM (Gibco, cat #21063-029), 10% fetal bovine serum (ExcelBio, cat #FND500), 1% Penicillin-Streptomycin (Solarbio, cat #P1400-100]. TNF-α (R&D 210-TA-020/CF) was then added to the assay plate at a final concentration of […]. This plate was then incubated for 24 hrs at 37° C. and 5% CO2. Secreted alkaline phosphatase expression was then measured using QUANTI-Blue™(Invivogen), according to manufacturer instructions and read on an Envision microplate reader at 620 nm.
Inhibition data for test compound over a range of concentration was plotted as percentage inhibition of the test compound (100%=maximum inhibition). IC50 values were determined after correcting for background [(sample read-mean of low control)/(mean of high control-mean of low control)] whereby the low control is DMSO without stimulation and high control is DMSO with stimulation. The IC50 is defined as the concentration of test compound which produces […] and was quantified using the 4 parameter logistic equation to fit the data.

`[2H]C([2H])([2H])N1C(=O)c2cccc(OC(F)F)c2[C@H]2C[C@@H]1c1nc3ccc(-c4cnc5c(c4)OC[C@]5(C)O)cc3n12` (single isomer, unassigned) [Example 46] and `[2H]C([2H])([2H])N1C(=O)c2cccc(OC(F)F)c2[C@H]2C[C@@H]1c1nc3ccc(-c4cnc5c(c4)OC[C@@]5(C)O)cc3n12` (single isomer, unassigned) [Example 47] cannot be ordered by IC50: under 100 nM for the first, under 100 nM for the second.

`CN1C(=O)c2cccc(OC(F)F)c2[C@H]2C[C@@H]1c1nc3ccc(-c4cnc5c(c4)CC[C@]5(C)N)cc3n12` (single isomer, unassigned) [Example 23] and `[2H]C([2H])([2H])N1C(=O)c2cccc(OC(F)F)c2[C@H]2C[C@@H]1c1nc3ccc(-c4cnc5c(c4)CC[C@@]5(C)N)cc3n12` (single isomer, unassigned) [Example 29] cannot be ordered by IC50: under 100 nM for the first, under 100 nM for the second.

`CC1(O)CCc2cc(-c3ccc4nc5n(c4c3)[C@@H]3C[C@H]5NC(=O)c4cccc(OC(F)F)c43)cnc21` (stereo partly drawn) [Example 3, (1R,11R)-18-(difluoromethoxy)-5-{7-hydroxy-7-methyl-5H,6H-cyclopenta[b]pyridin-3-yl}-2,9,12-triazapentacyclo[9.8.1.0^{2,10}.0^{3,8}.0^{14,19}]icosa-3(8),4,6,9,14(19),15,17-heptaen-13-one] and `CN1C(=O)c2cccc(OC(F)F)c2[C@H]2C[C@@H]1c1nc3ccc(-c4cnc5c(c4)CC[C@]5(C)O)cc3n12` (single isomer, unassigned) [Example 12] cannot be ordered by IC50: under 100 nM for the first, under 100 nM for the second.

`[2H]C([2H])([2H])N1C(=O)c2cccc(OC(F)F)c2[C@H]2C[C@@H]1c1nc3ccc(-c4cnc5c(c4)OCC[C@@]5(C)O)c(F)c3n12` (single isomer, unassigned) [Example 51] and `[2H]C([2H])([2H])N1C(=O)c2cccc(OC(F)F)c2[C@H]2C[C@@H]1c1nc3ccc(-c4cnc5c(c4)CC[C@]5(C)O)c(F)c3n12` (single isomer, unassigned) [Example 50] cannot be ordered by IC50: under 100 nM for the first, under 100 nM for the second.

`CN1Cc2cc(-c3ccc4nc5n(c4c3)[C@@H]3C[C@H]5N(C)C(=O)c4cccc(OC(F)F)c43)cnc2C1=O` [Example 20, (1R,11R)-18-(difluoromethoxy)-12-methyl-5-{6-methyl-7-oxo-5H-pyrrolo[3,4-b]pyridin-3-yl}-2,9,12-triazapentacyclo[9.8.1.0^{2,10}.0^{3,8}.0^{14,19}]icosa-3(8),4,6,9,14(19),15,17-heptaen-13-one] and `CN1C(=O)c2cccc(OC(F)F)c2[C@H]2C[C@@H]1c1nc3ccc(-c4cnc5c(c4)CC[C@@]5(N)CO)cc3n12` (single isomer, unassigned) [Example 37] cannot be ordered by IC50: under 100 nM for the first, under 100 nM for the second.

`[2H]C([2H])([2H])N1C(=O)c2cccc(OC(F)F)c2[C@H]2C[C@@H]1c1nc3ccc(-c4cnc5c(c4)OCC[C@@H]5N)cc3n12` [Example 30, (7R,14R)-11-((S)-4-amino-3,4-dihydro-2H-pyrano[3,2-b]pyridin-7-yl)-1-(difluoromethoxy)-6-(methyl-d3)-6,7-dihydro-7,14-methanobenzo[f]benzo[4,5]imidazo[1,2-a][1,4]diazocin-5(14H)-one] and `[2H]C([2H])([2H])N1C(=O)c2cccc(OC(F)F)c2[C@H]2C[C@@H]1c1nc3ccc(-c4cnc5c(c4)OCC[C@]5(C)O)cc3n12` (single isomer, unassigned) [Example 34] cannot be ordered by IC50: under 100 nM for the first, under 100 nM for the second.

`[2H]C([2H])([2H])N1C(=O)c2cccc(OC(F)F)c2[C@H]2C[C@@H]1c1nc3ccc(-c4cnc5c(c4)OC[C@@]5(C)O)nc3n12` (single isomer, unassigned) [Example 63] and `[2H]C([2H])([2H])N1C(=O)c2cccc(OC(F)F)c2[C@H]2C[C@@H]1c1nc3ccc(-c4cnc5c(c4)OCC[C@]5(C)O)nc3n12` (single isomer, unassigned) [Example 70] fall in the same range of IC50: 100 to 1000 nM for the first, 100 to 1000 nM for the second.

First: [2H]C([2H])([2H])N1C(=O)c2cccc(OC(F)F)c2[C@H]2C[C@@H]1c1nc3ccc(-c4cnc5c(c4)COC[C@@]5(C)O)cc3n12 (single isomer, unassigned) [Example 39]
Second: [2H]C([2H])([2H])N1C(=O)c2cccc(OC(F)F)c2[C@H]2C[C@@H]1c1nc3ccc(-c4cnc5c(c4)COCC5(C)N)cc3n12 (stereo partly drawn) [Example 45, (7R,14R)-11-(8-amino-8-methyl-7,8-dihydro-5H-pyrano[4,3-b]pyridin-3-yl)-1-(difluoromethoxy)-6-(methyl-d3)-6,7-dihydro-7,14-methanobenzo[f]benzo[4,5]imidazo[1,2-a][1,4]diazocin-5(14H)-one]
The IC50 of the first is higher: 10000 to 30000 nM for the first, 100 to 1000 nM for the second. The second is the more potent here.

`CN1C(=O)c2cccc(OC(F)F)c2[C@H]2C[C@@H]1c1nc3ccc(-c4ccc5c(c4)CC[C@@H]5O)cc3n12` [Example 15, (1R,11R)-18-(difluoromethoxy)-5-[(1S)-1-hydroxy-2,3-dihydro-1H-inden-5-yl]-12-methyl-2,9,12-triazapentacyclo[9.8.1.0^{2,10}.0^{3,8}.0^{14,19}]icosa-3(8),4,6,9,14(19),15,17-heptaen-13-one] and `CN1C(=O)c2cccc(OC(F)F)c2[C@H]2C[C@@H]1c1nc3ccc(-c4ccc5c(c4)OC[C@@H]5N)cc3n12` [Example 5, (1R,11R)-5-[(3R)-3-amino-2,3-dihydro-1-benzofuran-6-yl]-18-(difluoromethoxy)-12-methyl-2,9,12-triazapentacyclo[9.8.1.0^{2,10}.0^{3,8}.0^{14,19}]icosa-3(8),4,6,9,14(19),15,17-heptaen-13-one] cannot be ordered by IC50: under 100 nM for the first, under 100 nM for the second.

First: [2H]C([2H])([2H])N1C(=O)c2cccc(OC(F)F)c2[C@H]2C[C@@H]1c1nc3ccc(-c4cnc5c(c4)OC[C@]5(C)N)nc3n12 (single isomer, unassigned) [Example 60]
Second: [2H]C([2H])([2H])N1C(=O)c2cccc(OC(F)F)c2[C@H]2C[C@@H]1c1nc3ccc(-c4cnc5c(c4)OC[C@]5(C)N)cc3n12 (single isomer, unassigned) [Example 55]
The IC50 of the first is higher: 100 to 1000 nM for the first, under 100 nM for the second.

First: [2H]C([2H])([2H])N1C(=O)c2cccc(OC(F)F)c2[C@H]2C[C@@H]1c1nc3ccc(-c4cnc5c(c4)CC[C@]5(C)O)nc3n12 (single isomer, unassigned) [Example 68]
Second: [2H]C([2H])([2H])N1C(=O)c2cccc(OC(F)F)c2[C@H]2C[C@@H]1c1nc3ccc(-c4cnc5c(c4)CC[C@@]5(C)O)c(F)c3n12 (single isomer, unassigned) [Example 49]
The IC50 of the first is higher: 10000 to 30000 nM for the first, 100 to 1000 nM for the second.

`[2H]C([2H])([2H])N1C(=O)c2cccc(OC(F)F)c2[C@H]2C[C@@H]1c1nc3cc(F)c(-c4cnc5c(c4)CC[C@@]5(C)N)cc3n12` (single isomer, unassigned) [Example 26] and `[2H]C([2H])([2H])N1C(=O)c2cccc(OC(F)F)c2[C@H]2C[C@@H]1c1nc3ccc(-c4cnc5c(c4)CC[C@]5(C)N)cc3n12` (single isomer, unassigned) [Example 28] cannot be ordered by IC50: under 100 nM for the first, under 100 nM for the second.

`N[C@H]1CCc2cc(-c3ccc4nc5n(c4c3)[C@@H]3C[C@H]5NC(=O)c4cccc(OC(F)F)c43)ccc21` [Example 6, (1R,11R)-5-[(1S)-1-amino-2,3-dihydro-1H-inden-5-yl]-18-(difluoromethoxy)-2,9,12-triazapentacyclo[9.8.1.0^{2,10}.0^{3,8}.0^{14,19}]icosa-3(8),4,6,9,14(19),15,17-heptaen-13-one] showed an IC50 of under 100 nM.
